{"source": "patent US20080299109A1", "about": "“MECHANISM OF ASTRICYTE-NEURON SIGNALING” (Korea Institute of Science and Technology, priority 2007, published 2008)", "tested_on": "synaptic NMDA receptors", "assay": "Evoked NMDA EPSC current-voltage relationship in CA1 pyramidal cells", "assay_type": "cell-based, rat", "details": "30 nM thrombin, 0.2 mM Mg^2+", "experimental": "Young rats (Sprague-Dawley, age P15-P20) or mice (C57/B16, age P14-19) were deeply anesthetized with isoflurane and decapitated. The brain was rapidly removed and submerged in an ice-cold oxygenated artificial cerebrospinal fluid (ACSF) comprised of 130 mM NaCl, 24 mM NaHCO3, 3.5 mM KCl, 1.25 mM NaH2PO4, 1 mM CaCl2,3 mM MgCl2, and 10 mM glucose saturated with 95% O2/5% CO2, at pH 7.4.\nSlices were placed on the stage of an upright microscope underneath a platinum and nylon restraining grid, and superfused with oxygenated ACSF at room temperature (23° C.), some experiments are performed at 34° C. by a temperature controller (TC-344B, Warner, Hamden). The standard ACSF recording solution was comprised of 130 mM NaCl, 24 mM NaHCO3, 3.5 mM KCl, 1.25 mM NaH2PO4, 1.5 mM CaCl2, 1.5 mM MgCl2, and 10 mM glucose saturated with 95% O2/5% CO2, at pH 7.4. […]\nSynaptic responses were evoked by applying 0.1 ms current injection (1-100 μA) to a bipolar stimulating electrode placed in the stratum radiatum. Thrombin (Calbiochem) concentration was determined as described by Gingrich et al. (2000) using conversion of 1 U/ml=10 nM. […]\nEPSCs were evoked by electrical stimulation of Schaffer collateral axons in the CA1 stratum radiatum, and recorded from CA1 pyramidal neurons under voltage clamp. […]"}
{"substance": "thrombin", "values": [{"measurement": "Mg^2+ block of NMDA EPSCs at −60 mV", "value": "significantly less Mg^2+ block"}]}
